Assay results published in the NIST ThermoML archive (doi:10.1016/j.jct.2016.01.016).

How the values were obtained:
[1] = for mass density: 101.33 kPa
[2] = Molar enthalpy of transition or fusion; details: DSC

NC(=O)CN1CCCC1=O [2-oxo-1-pyrrolidineacetamide]
[1]
Details	Triple point temperature [K]	mass density [kg/m3]	molar volume [m3/mol]
300 K, Crystal 2, X-ray diffraction	–	1373	0.0001036
310 K, Crystal 2, X-ray diffraction	–	–	0.0001031
320 K, Crystal 2, X-ray diffraction	–	–	0.0001039
330 K, Crystal 2, X-ray diffraction	–	–	0.0001036
340 K, Crystal 2, X-ray diffraction	–	–	0.0001042
350 K, Crystal 2, X-ray diffraction	–	–	0.0001042
360 K, Crystal 2, X-ray diffraction	–	–	0.0001047
370 K, Crystal 1, X-ray diffraction	–	–	0.0001104
370 K, Crystal 2, X-ray diffraction	–	–	0.0001049
375 K, Crystal 1, X-ray diffraction	–	–	0.0001105
380 K, Crystal 1, X-ray diffraction	–	–	0.0001106
385 K, Crystal 1, X-ray diffraction	–	–	0.0001108
390 K, Crystal 1, X-ray diffraction	–	–	0.0001108
395 K, Crystal 1, X-ray diffraction	–	–	0.000111
400 K, Crystal 1, X-ray diffraction	–	1281	0.000111
405 K, Crystal 1, X-ray diffraction	–	–	0.0001112
410 K, Crystal 1, X-ray diffraction	–	–	0.0001112
Metastable crystal, DSC	365.05	–	–
Metastable crystal, X-ray diffraction	360.15	–	–

[1]
Details	mass density [kg/m3]	molar volume [m3/mol]
300 K, Metastable crystal, X-ray diffraction	1365	0.0001042
310 K, Metastable crystal, X-ray diffraction	–	0.0001044
320 K, Metastable crystal, X-ray diffraction	–	0.0001045
330 K, Metastable crystal, X-ray diffraction	–	0.0001049
340 K, Metastable crystal, X-ray diffraction	–	0.0001051
350 K, Metastable crystal, X-ray diffraction	–	0.0001054
355 K, Metastable crystal, X-ray diffraction	–	0.0001054
360 K, Metastable crystal, X-ray diffraction	–	0.0001055
423 K, Liquid, Vibrating tube method	–	0.0001228
428 K, Liquid, Vibrating tube method	–	0.0001232
433 K, Liquid, Vibrating tube method	–	0.0001235
438 K, Liquid, Vibrating tube method	–	0.0001239
443 K, Liquid, Vibrating tube method	–	0.0001241
448 K, Liquid, Vibrating tube method	–	0.0001245
453 K, Liquid, Vibrating tube method	–	0.0001248
458 K, Liquid, Vibrating tube method	–	0.0001252
463 K, Liquid, Vibrating tube method	–	0.0001255
468 K, Liquid, Vibrating tube method	–	0.0001259
473 K, Liquid, Vibrating tube method	–	0.0001262

Details	Molar enthalpy of transition or fusion, Crystal 1 [kcal/mol]	Molar enthalpy of transition or fusion, Metastable crystal [kcal/mol]	Triple point temperature, Crystal 1, DSC [K]	Triple point temperature, Crystal 2, X-ray diffraction [K]
[1]	–	–	422.95	370.15
[2]	6.35	0.843	–	–
